Values quoted from earlier work in patent US9308173B2, “Slow-releasing ophthalmic compositions comprising povidone iodine” (JIANGSU DEDA PHARMACEUTICALS CO., LTD., priority 2011, dated 2016).
Like-named read-outs stand apart in the source and are kept apart here.

Test system: infected eyes

Substance: Povidone iodine [PVP-I]
- Toxicity and irritation to the eye (0.02% eye drop (Grimes et al. 1992)): without the toxic affection and irritation
- Germicidal effect (0.02% eye drop, infected eyes treated repeatedly (Grimes et al. 1992)): same germicidal effects as one with concentration of 5.0% povidone iodine
- Toxicity to the eye (0.04% eye drops, clinical disinfection of eyes): no noticeable toxicity
- Toxicity to the eye (eye drops at high concentrations of 5%): toxic effects that cannot be ignored
